Test system: 521955-158-R6-J3-PDC complex spheroid growth, % test/control
Assay: Anticancer human tumor 521955-158-R6-J3-PDC patient-derived pancreatic carcinoma cell line growth inhibition [Asc]
Settings: for IC50: curve of first compound; for viability, T/C: stronger effect = lower value
Outline: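 Tumor cells were grown as multicellular spheroids with stromal HUVEC and mesenchymal stem cells and treated singly or in combination. Concentrations fell in half-log steps from the clinical Cmax, or from 10 microM where none was known.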
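Further: spheroids exposed to compounds for 7 days.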
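Wherever viability, T/C is given: 100% = DMSO vehicle control wells.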

Question: What does the source list for O=C(c1cc(Cc2n[nH]c(=O)c3ccccc23)ccc1F)N1CCN(C(=O)C2CC2)CC1 + Cc1c(S(C)(=O)=O)c(-c2cc(F)cc(N3CCN(c4ccc(NS(=O)(=O)c5ccc(NC(CCN6CCC(C(=O)OCCCP(=O)(O)O)CC6)CSc6ccccc6)c(S(=O)(=O)C(F)(F)F)c5)cc4)CC3)c2)c(-c2ccc(Cl)cc2)n1C(C)C?
Answer: IC50 (second compound 0.0316 µM): > 10000 nM; IC50 (second compound 0.1 µM): > 10000 nM; IC50 (second compound 0.316 µM): 786 nM; IC50 (second compound 1 µM): < 31.6 nM; IC50 (second compound 3.16 µM): < 31.6 nM; IC50 (second compound 10 µM): < 31.6 nM; viability, T/C (second compound 0.0316 µM, first compound 0.0316 µM): 77.8%; viability, T/C (second compound 0.0316 µM, first compound 0.1 µM): 86.6%; viability, T/C (second compound 0.0316 µM, first compound 0.316 µM): 87.5%; viability, T/C (second compound 0.0316 µM, first compound 1 µM): 83.3%; viability, T/C (second compound 0.0316 µM, first compound 3.16 µM): 75.6%; viability, T/C (second compound 0.0316 µM, first compound 10 µM): 76.8%; viability, T/C (second compound 0.1 µM, first compound 0.0316 µM): 88.4%; viability, T/C (second compound 0.1 µM, first compound 0.1 µM): 71.9%; viability, T/C (second compound 0.1 µM, first compound 0.316 µM): 64%; viability, T/C (second compound 0.1 µM, first compound 1 µM): 62.6%; viability, T/C (second compound 0.1 µM, first compound 3.16 µM): 60.7%; viability, T/C (second compound 0.1 µM, first compound 10 µM): 54%; viability, T/C (second compound 0.316 µM, first compound 0.0316 µM): 56.4%; viability, T/C (second compound 0.316 µM, first compound 0.1 µM): 61.7%; viability, T/C (second compound 0.316 µM, first compound 0.316 µM): 52.6%; viability, T/C (second compound 0.316 µM, first compound 1 µM): 48.6%; viability, T/C (second compound 0.316 µM, first compound 3.16 µM): 41.7%; viability, T/C (second compound 0.316 µM, first compound 10 µM): 35%; viability, T/C (second compound 1 µM, first compound 0.0316 µM): 41%; viability, T/C (second compound 1 µM, first compound 0.1 µM): 34.6%; viability, T/C (second compound 1 µM, first compound 0.316 µM): 31.1%; viability, T/C (second compound 1 µM, first compound 1 µM): 30.1%; viability, T/C (second compound 1 µM, first compound 3.16 µM): 32.4%; viability, T/C (second compound 1 µM, first compound 10 µM): 27.2%; viability, T/C (second compound 3.16 µM, first compound 0.0316 µM): 23.3%; viability, T/C (second compound 3.16 µM, first compound 0.1 µM): 19.1%; viability, T/C (second compound 3.16 µM, first compound 0.316 µM): 17.1%; viability, T/C (second compound 3.16 µM, first compound 1 µM): 19.3%; viability, T/C (second compound 3.16 µM, first compound 3.16 µM): 16%; viability, T/C (second compound 3.16 µM, first compound 10 µM): 13.4%; viability, T/C (second compound 10 µM, first compound 0.0316 µM): 14.4%; viability, T/C (second compound 10 µM, first compound 0.1 µM): 15.4%; viability, T/C (second compound 10 µM, first compound 0.316 µM): 11.7%; viability, T/C (second compound 10 µM, first compound 1 µM): 13%; viability, T/C (second compound 10 µM, first compound 3.16 µM): 10%; viability, T/C (second compound 10 µM, first compound 10 µM): 9.06%

Question: What does the source list for O=C(c1ccc(F)c(F)c1Nc1ccc(I)cc1F)N1CC(O)([C@@H]2CCCCN2)C1 + CCN1C(C(=O)NC23CCC(C(=O)O)(CC2)CC3)C(c2cccc(Cl)c2F)C2(C(=O)Nc3cc(Cl)ccc32)C12CCCCC2?
Answer: IC50 (second compound 0.00949 µM): 563 nM; IC50 (second compound 0.03 µM): 587 nM; IC50 (second compound 0.0949 µM): 389 nM; IC50 (second compound 0.3 µM): 559 nM; IC50 (second compound 0.949 µM): 380 nM; IC50 (second compound 3 µM): 322 nM; viability, T/C (second compound 0.00949 µM, first compound 0.00316 µM): 85.8%; viability, T/C (second compound 0.00949 µM, first compound 0.01 µM): 102%; viability, T/C (second compound 0.00949 µM, first compound 0.0316 µM): 134%; viability, T/C (second compound 0.00949 µM, first compound 0.1 µM): 105%; viability, T/C (second compound 0.00949 µM, first compound 0.316 µM): 65.1%; viability, T/C (second compound 0.00949 µM, first compound 1 µM): 35%; viability, T/C (second compound 0.03 µM, first compound 0.00316 µM): 113%; viability, T/C (second compound 0.03 µM, first compound 0.01 µM): 106%; viability, T/C (second compound 0.03 µM, first compound 0.0316 µM): 104%; viability, T/C (second compound 0.03 µM, first compound 0.1 µM): 104%; viability, T/C (second compound 0.03 µM, first compound 0.316 µM): 68.5%; viability, T/C (second compound 0.03 µM, first compound 1 µM): 34%; viability, T/C (second compound 0.0949 µM, first compound 0.00316 µM): 104%; viability, T/C (second compound 0.0949 µM, first compound 0.01 µM): 111%; viability, T/C (second compound 0.0949 µM, first compound 0.0316 µM): 114%; viability, T/C (second compound 0.0949 µM, first compound 0.1 µM): 90.7%; viability, T/C (second compound 0.0949 µM, first compound 0.316 µM): 53.5%; viability, T/C (second compound 0.0949 µM, first compound 1 µM): 38.3%; viability, T/C (second compound 0.3 µM, first compound 0.00316 µM): 121%; viability, T/C (second compound 0.3 µM, first compound 0.01 µM): 117%; viability, T/C (second compound 0.3 µM, first compound 0.0316 µM): 120%; viability, T/C (second compound 0.3 µM, first compound 0.1 µM): 86.3%; viability, T/C (second compound 0.3 µM, first compound 0.316 µM): 63.2%; viability, T/C (second compound 0.3 µM, first compound 1 µM): 38.7%; viability, T/C (second compound 0.949 µM, first compound 0.00316 µM): 118%; viability, T/C (second compound 0.949 µM, first compound 0.01 µM): 115%; viability, T/C (second compound 0.949 µM, first compound 0.0316 µM): 120%; viability, T/C (second compound 0.949 µM, first compound 0.1 µM): 80%; viability, T/C (second compound 0.949 µM, first compound 0.316 µM): 57.2%; viability, T/C (second compound 0.949 µM, first compound 1 µM): 38.5%; viability, T/C (second compound 3 µM, first compound 0.00316 µM): 103%; viability, T/C (second compound 3 µM, first compound 0.01 µM): 112%; viability, T/C (second compound 3 µM, first compound 0.0316 µM): 104%; viability, T/C (second compound 3 µM, first compound 0.1 µM): 78.5%; viability, T/C (second compound 3 µM, first compound 0.316 µM): 52.5%; viability, T/C (second compound 3 µM, first compound 1 µM): 34.4%

Reference: PubChem BioAssay AID1963451 (Molecular Pharmacology Branch, DTP, NCI, 2024)
